Assay [1] has as its target SARM1 (Homo sapiens, UniProt Q6SZW1). Briefly: biochemical.
The target of assay [2] is T1, CD38 (Homo sapiens, UniProt P28907).
T1 construct: recombinant CD38 (reCD38)
T1 sequence (P28907 1-300): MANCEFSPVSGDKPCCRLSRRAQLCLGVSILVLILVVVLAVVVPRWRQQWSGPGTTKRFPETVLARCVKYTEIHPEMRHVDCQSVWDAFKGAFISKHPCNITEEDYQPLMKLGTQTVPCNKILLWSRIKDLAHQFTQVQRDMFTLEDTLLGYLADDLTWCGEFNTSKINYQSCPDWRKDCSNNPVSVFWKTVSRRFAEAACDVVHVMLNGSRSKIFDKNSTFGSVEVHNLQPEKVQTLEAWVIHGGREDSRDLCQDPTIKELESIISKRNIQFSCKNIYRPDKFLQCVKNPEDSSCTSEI
Briefly: inhibition of recombinant CD38 enzyme activity (Figure S5H). Type of assay: biochemical.

The target of assay [3] is T2, SARM1 (Homo sapiens, UniProt Q6SZW1).
T2 construct: SARM1-FLAG, immunoprecipitated; SARM1-dN (N-terminal mitochondria localization signal truncated)
T2 sequence (Q6SZW1 28-724): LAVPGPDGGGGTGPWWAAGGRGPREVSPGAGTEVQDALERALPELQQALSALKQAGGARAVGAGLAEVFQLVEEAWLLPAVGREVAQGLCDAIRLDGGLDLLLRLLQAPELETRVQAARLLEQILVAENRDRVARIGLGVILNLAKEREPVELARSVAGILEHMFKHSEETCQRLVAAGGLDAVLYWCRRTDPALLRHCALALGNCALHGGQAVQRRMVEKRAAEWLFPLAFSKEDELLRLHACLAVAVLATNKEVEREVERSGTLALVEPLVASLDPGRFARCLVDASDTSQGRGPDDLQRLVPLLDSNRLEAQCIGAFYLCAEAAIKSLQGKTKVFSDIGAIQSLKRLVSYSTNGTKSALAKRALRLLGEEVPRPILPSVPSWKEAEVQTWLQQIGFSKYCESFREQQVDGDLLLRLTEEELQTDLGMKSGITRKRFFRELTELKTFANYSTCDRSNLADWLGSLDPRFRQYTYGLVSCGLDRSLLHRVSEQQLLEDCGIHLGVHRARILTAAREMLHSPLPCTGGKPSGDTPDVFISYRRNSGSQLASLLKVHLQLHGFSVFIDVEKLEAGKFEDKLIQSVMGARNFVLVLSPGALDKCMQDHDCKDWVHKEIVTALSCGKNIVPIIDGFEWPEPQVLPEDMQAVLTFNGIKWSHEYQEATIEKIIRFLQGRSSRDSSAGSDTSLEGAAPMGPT
Briefly: εNAD NADase assay and HPLC activity assays of immunopurified SARM1 (activation); dose-response in lysate. Type of assay: biochemical.

Assay [4] deals with T1, CD38. Briefly: inhibition of recombinant CD38 enzyme activity (Figure S5H). In kind it is biochemical. The source holds these as a separate data set.

The EC50 is the concentration at which the effect is half-maximal. A lower EC50 goes with higher potency in that assay. A word on the IC50: it is the concentration that inhibits the measured activity by half. Turning to `NC(=O)c1ccc[n+]([C@@H]2O[C@H](COP(O)(O)=S)[C@@H](O)[C@@H]2F)c1` [CZ-48], the EC50 at SARM1 [1] is approximately 50 µM. Besides, at CD38 [2], the IC50 is approximately 10 µM.
At SARM1 [3], `NC(=O)c1ccc[n+]([C@@H]2O[C@H](COP(=O)(O)O)[C@@H](O)[C@H]2O)c1` [NMN] displayed an EC50 of approximately 50 µM. Besides, on CD38 [4], the “inhibition of recombinant CD38 enzyme activity (Figure S5H)” value was “In contrast to SARM1, recombinant CD38 (reCD38) was inhibited by both NMN (Figure S5H) and CZ-48”.
